Like-named read-outs stand apart in the source and are kept apart here.
Columns and labels:
[1] = Plasma levels after transdermal administration to hairless mice; type: in vivo
Experimental: Tested compounds (20% solution or suspension in 1 mL isopropanol) are administered transdermally to the skin of intact hairless mice. The plasma levels of the parent compounds are determined by HPLC.

mice = assay: Analgesic activity, acetic acid writhing; type: in vivo; conditions: 30 min before acetic acid
Experimental: The prodrug compounds are administered either transdermally or orally. The parent compounds are administered orally. The number of writhing that occurred when mice are administered the acetic acid solution are counted, and the rate of inhibition based on the control group which was not pretreated with any test compounds is calculated. […] The A group is the control group.

rats = assay: Antipyretic activity, E. coli suspension as pyrogen; type: in vivo; conditions: in °C (unit assumed)
Experimental: Rats are administered with sterilized E. coli suspension as a pyrogen. Each group of rats are administered with a prodrug compounds or parent compounds at a dosage specified below. The prodrug compounds are administered either orally or transdermally. The parent compounds are administered orally.

[2] = Solubility in water / aqueous solubility of HPPs and parent drugs; conditions: for Solubility in water: product as prepared in Example 1
human skin tissue [3] = assay: In vitro penetration rate through human skin, modified Franz cells; conditions: Franz cell; for In vitro penetration rate (apparent flux), prodrug compounds: 20% solution in 0.2 M phosphate buffer pH 7.4, human skin
Chinese white rabbits [4] = assay: Wound healing, scar area; type: in vivo, rabbit; conditions: 5% aqueous solution applied to the nearby area of wounds, vs control rabbits
Text: 25 Chinese white rabbits were divided into 5 groups and hairs on the back of rabbits were removed (5×5 cm^2).

Chinese white rabbits [5] = assay: Malassezia-induced lesions similar to psoriasis; type: in vivo, rabbit; conditions: 5% aqueous solution twice per day, 10 days after application
Text: Heavy suspensions of Malassezia [Rosenberg, E. W., et al., Mycopathologia, 72, 147-154 (1980)] were applied to the shaved skin on the backs of the Chinese white rabbits (n=4×6) twice (at 7 am and 7 pm) per day for 2 weeks, lesions similar to psoriasis resulted.

human skin tissue [6] = conditions: pH 7.4
[7] = transdermal, 20% in 1 mL isopropanol, hairless mice
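Wherever LD50 of HPP is given: acute toxicity in rats expressed as LD50, determined for both prodrugs and their parent compounds.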

CC(=O)O.CCN(CC)CCOC(=O)C(C)c1ccc2c(c1)[nH]c1ccc(Cl)cc12 (stereo not drawn) [diethylaminoethyl 6-chloro-α-methyl-9H-carbazole-2-acetate.AcOH]
Peak plasma concentration of parent compound after prodrug compound [1, 7]: 2000 mg/L
t, time to peak plasma level of parent compound after prodrug compound [1, 7]: 50 min
% (rate of writhing inhibition) (mice; 100 mg/kg transdermally): 59%
No. of Writhing (mice; 100 mg/kg transdermally): 14.2
body temperature, t = 0 min (rats; 100 mg/kg transdermally): 37.28 ± 0.06
body temperature, t = 90 min (rats; 100 mg/kg transdermally): 36.68 ± 0.05
body temperature, t = 180 min (rats; 100 mg/kg transdermally): 36.62 ± 0.08
body temperature, t = 270 min (rats; 100 mg/kg transdermally): 36.58 ± 0.07
LD50 of HPP (rat; rats): 700 mg/kg
Solubility of HPP ([2]; medium not given): >350 mg/mL
Solubility in water [2]: 400 mg/mL
In vitro penetration rate (apparent flux), prodrug compounds (human skin tissue [3]): 4000 μg/cm^2/h

CCN(CC)CCOC(=O)Cc1sc(-c2ccccc2)nc1-c1ccc(Cl)cc1.Cl [diethylaminoethyl 4-(4-chlorophenyl)-2-phenyl-5-thiazoleacetate.HCl]
average scar area (Chinese white rabbits [4]): only a third of that of the control rabbits

CCN(CC)CCOC(=O)COC(=O)Cc1c(C)n(C(=O)c2ccc(Cl)cc2)c2ccc(OC)cc12.Cl [diethylaminoethyl 1-(4-chlorobenzoyl-5-methoxy-2-methyl-1H-indole-3-acetoxyacetate.HCl]
average scar area (Chinese white rabbits [4]): only a third of that of the control rabbits

CC(C(=O)O)c1cccc(C(=O)c2ccccc2)c1 (stereo not drawn) [Ketoprofen, 2-(3-benzoylphenyl) propionic acid, reference compound]
t, time to peak plasma level after parent compound ([1]; parent compound administered (time when taken orally)): 1 to 2 h
Peak plasma concentration after parent compound ([1]; parent compound administered, hairless mice): 1 mg/L
No. of Writhing (mice; 50 mg/kg orally): 18.1
inhibition at 50 mg/kg (mice; Mus musculus, po, 50 mg/kg orally, read-out: % (rate of writhing inhibition)): 48%
body temperature, t = 0 min (rats; 50 mg/kg orally): 37.25 ± 0.06
body temperature, t = 90 min (rats; 50 mg/kg orally): 36.81 ± 0.05
body temperature, t = 180 min (rats; 50 mg/kg orally): 36.82 ± 0.08
body temperature, t = 270 min (rats; 50 mg/kg orally): 36.78 ± 0.07
In vitro penetration rate (apparent flux), parent compounds (human skin tissue [3]; 20% suspension in 0.2 M phosphate buffer pH 7.4, human skin, detection limit 1): <1 μg/cm^2/h

CC(=O)O.CCN(CC)CCOC(=O)Cc1ccccc1Nc1c(Cl)cccc1Cl [diethylaminoethyl 2[(2,6-dichlorophenyl)amino]benzene acetate.AcOH]
Peak plasma concentration of parent compound after prodrug compound [1, 7]: 2100 mg/L
t, time to peak plasma level of parent compound after prodrug compound [1, 7]: 40 min
% (rate of writhing inhibition) (mice; 10 mg/kg orally): 64.6%
No. of Writhing (mice; 10 mg/kg orally): 12.1
% (rate of writhing inhibition) (mice; 10 mg/kg transdermally): 69.9%
No. of Writhing (mice; 10 mg/kg transdermally): 10.3
% (rate of writhing inhibition) (mice; 20 mg/kg orally): 73.1%
No. of Writhing (mice; 20 mg/kg orally): 9.2
% (rate of writhing inhibition) (mice; 20 mg/kg transdermally): 74.3%
No. of Writhing (mice; 20 mg/kg transdermally): 8.8
body temperature, t = 0 min (rats; 10 mg/kg orally): 37.52 ± 0.07
body temperature, t = 90 min (rats; 10 mg/kg orally): 36.50 ± 0.06
body temperature, t = 180 min (rats; 10 mg/kg orally): 36.60 ± 0.05
body temperature, t = 270 min (rats; 10 mg/kg orally): 36.55 ± 0.08
body temperature, t = 0 min (rats; 10 mg/kg transdermally): 37.58 ± 0.06
body temperature, t = 90 min (rats; 10 mg/kg transdermally): 36.30 ± 0.06
body temperature, t = 180 min (rats; 10 mg/kg transdermally): 36.35 ± 0.08
body temperature, t = 270 min (rats; 10 mg/kg transdermally): 36.31 ± 0.07
body temperature, t = 0 min (rats; 20 mg/kg orally): 37.54 ± 0.08
body temperature, t = 90 min (rats; 20 mg/kg orally): 36.30 ± 0.05
body temperature, t = 180 min (rats; 20 mg/kg orally): 36.35 ± 0.07
body temperature, t = 270 min (rats; 20 mg/kg orally): 36.38 ± 0.08
body temperature, t = 0 min (rats; 20 mg/kg transdermally): 37.59 ± 0.05
body temperature, t = 90 min (rats; 20 mg/kg transdermally): 36.25 ± 0.05
body temperature, t = 180 min (rats; 20 mg/kg transdermally): 36.30 ± 0.07
body temperature, t = 270 min (rats; 20 mg/kg transdermally): 36.20 ± 0.05
LD50 of HPP (rat; rat, in vivo): 800 mg/kg
Solubility of HPP ([2]; in water): >300 mg/mL
Solubility in water [2]: 400 mg/mL
In vitro penetration rate (apparent flux), prodrug compounds (human skin tissue [3]): 5000 μg/cm^2/h

CCN(CC)CCOC(=O)Cc1ccc(C(=O)c2ccc(C)cc2)n1C.Cl [diethylaminoethyl 1-methyl-5-(4-methylbenzoyl)-1H-pyrrole-2-acetate.HCl]
average scar area (Chinese white rabbits [4]): only a third of that of the control rabbits

C=CCOc1ccc(CC(=O)OCCN(CC)CC)cc1Cl.Cl [diethylaminoethyl 3-chloro-4-(2-propenyloxy)benzeneacetate.HCl]
average scar area (Chinese white rabbits [4]): only a third of that of the control rabbits

CCN(CC)CCOC(=O)Cc1cccc(C(=O)c2ccc(Br)cc2)c1N.Cl [diethylaminoethyl 2-amino-3-(4-bromo-benzoyl)benzeneacetate.HCl]
average scar area (Chinese white rabbits [4]): only a third of that of the control rabbits

CC(=O)O.CCN(CC)CCOC(=O)Cc1cccc(C(=O)c2ccc(Br)cc2)c1N [diethylaminoethyl 2-amino-3-(4-bromo-benzoyl)benzeneacetate.AcOH]
Peak plasma concentration of parent compound after prodrug compound ([1]; mouse, in vivo): 20 mg/L
t, time to peak plasma level of parent compound after prodrug compound ([1]; mouse, in vivo): 50 min
% (rate of writhing inhibition) (mice; 100 mg/kg transdermally): 62%
No. of Writhing (mice; 100 mg/kg transdermally): 13.2
body temperature, t = 0 min (rats; 100 mg/kg transdermally): 37.25 ± 0.06
body temperature, t = 90 min (rats; 100 mg/kg transdermally): 36.71 ± 0.05
body temperature, t = 180 min (rats; 100 mg/kg transdermally): 36.65 ± 0.08
body temperature, t = 270 min (rats; 100 mg/kg transdermally): 36.64 ± 0.07
lesions similar to psoriasis (Chinese white rabbits [5]): the lesions were resolved
In vitro penetration rate (apparent flux), prodrug compounds (human skin tissue [6]): 1100 μg/cm^2/h
LD50 of HPP (rat; rats): 1600 mg/kg

CCN(CC)CCOC(=O)Cc1cc(C)c(C(=O)c2ccc(Cl)cc2)n1C.Cl [diethylaminoethyl 5-(4-Chlorobenzoyl)-1,4-dimethyl-1H-pyrrole-2-acetate.HCl]
average scar area (Chinese white rabbits [4]): only a third of that of the control rabbits

CCc1cccc2c3c([nH]c12)C(CC)(CC(=O)OCCN(CC)CC)OCC3.Cl (stereo not drawn) [diethylaminoethyl 1,8-diethyl-1,3,4,9-tetrahydropyrano-[3,4-b]indole-1-acetate.HCl]
average scar area (Chinese white rabbits [4]): only a third of that of the control rabbits

CC(C)Cc1ccc(C(C)C(=O)OCC2CCCNC2)cc1.Cl (stereo not drawn) [3-piperidinemethyl 2-(ρ-isobutylphenyl) propionate.HCl]
average scar area (Chinese white rabbits [4]): only a third of that of the control rabbits

CCN(CC)CCOC(=O)Cc1cn(-c2ccccc2)nc1-c1ccc(Cl)cc1.Cl [diethylaminoethyl 3-(4-chlorophenyl)-1-phenyl-1H-pyrazole-4-acetate.HCl]
average scar area (Chinese white rabbits [4]): only a third of that of the control rabbits

CC(=O)O.CCN(CC)CCOC(=O)C(C)c1c(C)n(C(=O)c2ccc(Cl)cc2)c2ccc(OC)cc12 (stereo not drawn) [diethylaminoethyl α-methyl-(p-chlorobenzoyl)-5-methoxy-2-methylindole 3-acetate.AcOH]
Peak plasma concentration of parent compound after prodrug compound [1, 7]: 2000 mg/L
t, time to peak plasma level of parent compound after prodrug compound [1, 7]: 50 min
% (rate of writhing inhibition) (mice; 100 mg/kg transdermally): 61%
No. of Writhing (mice; 100 mg/kg transdermally): 13.8
body temperature, t = 0 min (rats; 100 mg/kg transdermally): 37.35 ± 0.06
body temperature, t = 90 min (rats; 100 mg/kg transdermally): 36.71 ± 0.05
body temperature, t = 180 min (rats; 100 mg/kg transdermally): 36.60 ± 0.08
body temperature, t = 270 min (rats; 100 mg/kg transdermally): 36.59 ± 0.07
Solubility of HPP ([2]; medium not given): >450 mg/mL
In vitro penetration rate (apparent flux), prodrug compounds (human skin tissue [3]): 4000 μg/cm^2/h

Reference: patent US20210353579A1, “HIGH PENETRATION COMPOSITIONS AND USES THEREOF” (Techfields Pharma Co., Ltd., priority 2006, published 2021)
